Measured values as given in US12161669B2, “Compositions and methods for cell targeting therapies” (UMC UTRECHT HOLDING B.V., priority 2017, dated 2024).

Legend:
Type in all cases: cell-based
CD277 = test: Flow cytometry FRET of CD277 homodimerization in HEK 293 cells; settings: medium vs ABP
Protocol: In order to determine homodimerization of CD277 molecules, cells were co-stained with equal amount of PE-conjugated anti-CD277 (donor) and […]680-conjugated anti-CD277 (acceptor) and samples were measured using a FACS Canto-II flow cytometer (BD). FRET efficiency was calculated with equations according to Sebestyen and colleagues (Sebestyen et al., 2002) where donor fluorescence was excited at 488 nm and detected at 576±26 nm, acceptor fluorescence was excited at 635 nm and detected at 780±60 nm, whereas FRET intensity was excited at 488 nm and detected at 780±60 nm. Correction factors for the spectral overlap between the different fluorescence channels were obtained from data measured on unlabeled and single-labeled cells.

RhoA = test: Intracellular RhoA distribution by confocal microscopy in EBV-LCL 48; settings: EBV-LCL 48, with or without ABP
HEK293FT tumor cells = test: Tumor cell-T cell conjugate formation with HEK293FT cells (confocal); settings: Jurma cells expressing γδTCRs, 100 μM PAM
Protocol: HEK293FT cells were seeded in μ-slide poly-L-lysine pre coated chamber (Ibidi) to adhere overnight. Next day cells were treated with 100 μM PAM for one hour at 37° C. TEGs were added onto HEK293FT cells and incubated at 37° C. for 30-120 minutes. After co-incubation chambers were immediately placed onto ice and fixed with 4% PFA for 30 minutes. Samples were blocked with 1% BSA/FCS and labeled with CD3ε-Alexa Fluor 647 (BD Biosciences) at 2 μg/mL for two hours at room temperature, and finally fixed with 1% PFA+DAPI. Samples were imaged with Zeiss LSM-710 and analyzed with Volocity software (PerkinElmer). In order to quantify the number of conjugates between HEK293FT and TEG cells we calculated the ratio between CD3c positive objects and DAPI positive objects on each image taken. To analyse gamma delta TCR enrichment into the immunological synapse, we calculated the ratio of CD3c signal enrichment inside the contact area versus outside of contact area of the target and effector cell on 63× magnified images. To further assess whether distinct functional avidity of γ9δ2TCRs when expressed in the TEG format is regulated by their ability to mediate binding of TEGs to tumor cell targets a more dynamic model was utilized. […] The number of tumor cell-T cell conjugates was assessed. […]

Daudi = test: IFNγ ELISA of γ9δ2T cell clones co-incubated with Daudi
Protocol: PBMCs were stained with monoclonal antibody (mAb) to Vδ2 (Vδ2-FITC clone B6). The mAb-positive fraction was either sorted in bulk, expanded on REP, and thereafter cloned by limiting dilution (donor A) or single cell-sorted using FACS sort with collection of single cells in 96 well plates (donors B, C). All FACS sorts were performed on ARIAII (BD). Eight to twelve rounds of expansion on REP preceded functional testing. As soon as the cells expanded to sufficient numbers functional testing was performed: 5*10^4 T cells were incubated overnight together with target cells at 1:1 E:T ratio in DMEM supplemented with 10% FCS and 1% pen/strep, without or in the presence of 100 uM Pamidronate Disodium salt (Calbiochem Cat #506600), supernatants were harvested the day after, and IFNγ concentration was measured using ELISA (eBioscience Ready-Set-Go! ELISA kit, Invitrogen Cat #88731688).
In order to assess on a broader range the impact of individual γ9δ2TCR on the functional activity of individual γ92δT cell clones γδ T cell clones were isolated by limiting dilution or FACS sorting. In vitro antitumor activity was determined by IFNγ production against the tumor cell line Daudi. Substantial antitumor functional heterogeneity was observed among the γ9δ2T cell clones (N=57) isolated from 4 healthy donors, with approximately 60% of the clones being reactive to the tumor cell line Daudi (FIG. 13A), when choosing a cut-off of 30 pg/ml for reliable measurement of IFNγ concentration. Bisphopshonates such as pamidronate (PAM) can enhance activity of γ9δ2T cells through induction of CD277J, facilitated by RhoB and sensed by the γ9δ2TCR. In the presence of 100 μM PAM the reactivity of investigated γ9δ2T cell clones was on average 10-fold enhanced (range 0.7-37.3; median 8.1) with >95% of the clones showing reactivity above the threshold when PAM was added (FIG. 13A). In order to assess whether activity profiles where exclusively observed for Daudi cells or also valid for other targets, the cell line HEK293FT, an additional well-characterized γδT cell target, was co-incubated with the isolated γδT cell clones. HEK293FT cell line elicited much lower cytokine secretion in the absence of PAM with only approximately 30% of γ9δ2T cell clones secreting IFNγ above cut-off (FIG. 13B).

`NCCC(O)(P(=O)(O)O)P(=O)(O)O` [pamidronate] was tested, and the “pairing of CD277 molecules (homodimer FRET)” value (CD277) was “insensitive”, the “intracellular distribution of RhoA” value (RhoA) was “did not change” and the “number of tumor cell-T cell conjugates, effect of PAM” value (HEK293FT tumor cells) was “increased the number of conjugates”. For the same compound, the “clones showing reactivity above the threshold” value (Daudi; 100 μM PAM added, cut-off 30 pg/ml IFNγ) was over 95%, the “enhancement of reactivity of γ9δ2T cell clones, average” value (Daudi; 100 μM PAM vs no PAM) was 10 fold and the “enhancement of reactivity of γ9δ2T cell clones, median” value (Daudi; 100 μM PAM vs no PAM) was 8.1 fold. The “enhancement of reactivity of γ9δ2T cell clones, range” value (Daudi; 100 μM PAM vs no PAM) was 0.7-37.3 fold.
